Test results: patent US5547939A, “Broad spectrum antimicrobial compounds and methods of use” (priority 1994, dated 1996)

What was measured:
[1] = test system: Cryptococcus neoformans; test: Agar diffusion assay, C. neoformans; type: cell-based; conditions: FIG. 5
Description: (§1) The broad spectrum antimicrobial activity of indolicidin and indolicidin analogs also was determined using a gram negative bacterial strain, Escherichia coli ML35, a gram positive bacterial strain, Staphylococcus aureus 502A, and a fungus, Cryptococcus neoformans, in an agar diffusion assay, essentially as described by Hultmark et al., EMBO J. 2:571-576 (1983) as modified by Lehrer et al., J. Immunol. Meth. 137:167-173. Briefly, nutrient-containing agar (or agarose) plates were seeded with a selected target microorganism and 5-10 μl of peptide was placed into a well formed in the solid medium or onto a disc placed on the surface of the medium. Following an appropriate incubation interval, microbial growth inhibition was visualized and quantitated by measuring the clear zone around each well or disc (see, also, Selsted, 1993).

[2] = test system: Escherichia coli ML35; test: Agar diffusion assay, E. coli; type: cell-based; conditions: E. coli ML35, FIG. 4
Description: as §1

[3] = test system: Staphylococcus aureus 502A; test: Agar diffusion assay, S. aureus; type: cell-based; conditions: S. aureus 502a, FIG. 6
Description: as §1

[4] = test system: erythrocyte suspension; test: Hemolytic assay (erythrocyte lysis assay); type: cell-based; conditions: for % Hemolysis: 30 μg peptide, 18 hr at 37° C., 100% lysis = 1% NP40
Description: The hemolytic activity of each peptide was examined using an erythrocyte lysis assay. An 8% (vol:vol) erythrocyte suspension in normal saline or in 80% mouse serum was incubated with 30 μg peptide. After 18 hr incubation at 37° C. intact erythrocytes were removed by centrifugation and the A550 of the supernatant was determined as a measure of hemolysis. As a control (100% lysis), supernatant was collected from an erythrocyte suspension treated with 1% NP40 detergent.

[5] = test system: Escherichia coli ML35; test: Dose response bactericidal assay (CFU reduction), E. coli; type: cell-based; conditions: 2 hr incubation
Description: (§2) The time course and dose-dependence of the antimicrobial activity of an indolicidin analog can be determined by incubating a microorganism with the analog and determining the viability after various times of incubation or after treatment with various concentrations of the analog. Assays were performed in 10 mM sodium phosphate buffer, pH 7.4, at 37° C., as described by Selsted et al. (Infect. Immun. 45:150-154 (1985), which is incorporated herein by reference).
(§3) The dose response of a gram negative bacterial strain, Escherichia coli ML35, and a gram positive bacterial strain, Staphylococcus aureus 502A, to indolicidin was determined by incubating 2×10^6 colony forming units (CFU) of log phase bacteria with 0-25 ug/ml of indolicidin for two hours. Following incubation, the cultures were serially diluted and plated on nutrient agar. […] E. coli was more susceptible than S. aureus, as>95% of the input cells were killed after 2 hr incubation with 2.5 ug/ml indolicidin. The indolicidin diluent, 0.01% acetic acid, had no effect on either bacterial strain.

[6] = test system: E. coli; test: Microbicidal kinetics of indolicidin; type: cell-based, Escherichia coli; conditions: 25 μg/ml
Description: as §2
The kinetics of indolicidin antimicrobial activity was evaluated by incubating 2×10^6 E. coli with 25 ug/ml of indolicidin for 1-40 min. Following incubation for the appropriate time, an aliquot of the culture was removed and diluted and plated as described above.

[7] = test system: Staphylococcus aureus 502A; test: Dose response bactericidal assay (CFU reduction), S. aureus; type: cell-based; conditions: 10 ug/ml, 2 hr incubation, 2×10^6 CFU, 10 mM sodium phosphate pH 7.4, 37° C.
Description: as §2, §3

[8] = five attempts to raise antibodies
[9] = saline, 8% erythrocyte suspension in normal saline
[10] = serum, 8% erythrocyte suspension in 80% mouse serum

Compound | antimicrobial activity (clear zone) compared with indolicidin [1] | antimicrobial activity (clear zone) compared with indolicidin [2] | antimicrobial activity (clear zone) compared with indolicidin [3] | % Hemolysis [4, 9] [%] | % Hemolysis [4, 10] [%] | further results
H2 N--I--L--P--W--K--W--P--W--W--P--W--R--OH (H-ILPWKWPWWPWR-OH) [Indol-R12 --OH, indolicidin analog] | markedly less potent than indolicidin | markedly less potent than indolicidin | markedly less potent than indolicidin | – | – | –
CC[C@H](C)[C@H](N)C(=O)N[C@@H](CC(C)C)C(=O)N1CCC[C@H]1C(=O)N[C@@H](Cc1c[nH]c2ccccc12)C(=O)N[C@@H](CCCCN)C(=O)N[C@@H](Cc1c[nH]c2ccccc12)C(=O)N1CCC[C@H]1C(=O)N[C@@H](Cc1c[nH]c2ccccc12)C(=O)N[C@@H](Cc1c[nH]c2ccccc12)C(=O)N1CCC[C@H]1C(=O)N[C@@H](Cc1c[nH]c2ccccc12)C(=O)N[C@@H](CCCNC(=N)N)C(=O)N[C@@H](CCCNC(=N)N)C(=O)O [Indol-R12 R13 --OH, H2 N--I--L--P--W--K--W--P--W--W--P--W--R--R--OH] | – | – | – | 47.9 | 3.0 | –
H2 N--I--L--P--W--K--W--P--W--W--P--W--K--CONH2 (H-ILPWKWPWWPWK-NH2) [Indol-K12 --NH2, indolicidin analog having a deletion of R-13 and a substitution of K-12 for R-12] | – | – | – | – | – | antimicrobial selectivity (antimicrobial activity relative to hemolytic activity) compared with indolicidin ([4]; FIGS. 4-6 and Table 2): greater antimicrobial selectivity than indolicidin
H2 N--I--L--P--W--K--W--P--W--W--P--W--R--N--CONH2 [Indol-R12 W13 --NH2] | markedly less potent than indolicidin | markedly less potent than indolicidin | markedly less potent than indolicidin | – | – | –
CC[C@H](C)[C@H](N)C(=O)N[C@@H](CC(C)C)C(=O)N1CCC[C@H]1C(=O)N[C@@H](Cc1c[nH]c2ccccc12)C(=O)N[C@@H](CCCCN)C(=O)N[C@@H](Cc1c[nH]c2ccccc12)C(=O)N1CCC[C@H]1C(=O)N[C@@H](Cc1c[nH]c2ccccc12)C(=O)N[C@@H](Cc1c[nH]c2ccccc12)C(=O)N1CCC[C@H]1C(=O)N[C@@H](Cc1c[nH]c2ccccc12)C(=O)N[C@@H](CCCNC(=N)N)C(=O)N[C@@H](CCCNC(=N)N)C(N)=O [Indol-R12 R13 --NH2, H2 N--I--L--P--W--K--W--P--W--W--P--W--R--R--CONH2] | greatest antimicrobial activity | greatest antimicrobial activity | greatest antimicrobial activity | 78.5 | 2.3 | input cells killed ([5]; 2.5 ug/ml): > 95%; reduction of viability (CFU) ([5]; 10 ug/ml, 2×10^6 CFU, 10 mM sodium phosphate pH 7.4, 37° C.): reduced by at least four orders of magnitude; state of the culture ([6]; after 20 min): essentially was sterilized; reduction of number of E. coli CFU ([6]; within 5 min): three orders of magnitude; % Hemolysis ([4]; saline, 8% erythrocyte suspension in normal saline, listed as indolicidin): greatest hemolytic activity; reduction of viability (CFU) [7]: reduced by at least four orders of magnitude; immunogenicity [8]: extremely low immunogenicity
